Structures can show the parent of a compound that is named as a salt.

Series [1] is described as follows: Rat liver microsomal stability assay. In kind it is in vitro ADME. To be noted: rat liver microsomes, 37° C., NADPH; for half-life at 1 µM: pH 7.4, read-out: RLM stability t1/2.
For series [2], the target named is Dopamine Transporter (hDAT) (Homo sapiens, UniProt Q01959). The series is described as follows: Dopamine transporter (hDAT) membrane binding assay, [3H]-WIN 35,428.
For series [3], the target named is T1, human norepinephrine transporter (hNET) (Homo sapiens, UniProt P23975). The series is described as follows: hNET uptake, Protocol B: cell based norepinephrine reuptake assay using recombinant hNET (MDCK-Net6 cells).
T1 sequence (P23975 whole entry): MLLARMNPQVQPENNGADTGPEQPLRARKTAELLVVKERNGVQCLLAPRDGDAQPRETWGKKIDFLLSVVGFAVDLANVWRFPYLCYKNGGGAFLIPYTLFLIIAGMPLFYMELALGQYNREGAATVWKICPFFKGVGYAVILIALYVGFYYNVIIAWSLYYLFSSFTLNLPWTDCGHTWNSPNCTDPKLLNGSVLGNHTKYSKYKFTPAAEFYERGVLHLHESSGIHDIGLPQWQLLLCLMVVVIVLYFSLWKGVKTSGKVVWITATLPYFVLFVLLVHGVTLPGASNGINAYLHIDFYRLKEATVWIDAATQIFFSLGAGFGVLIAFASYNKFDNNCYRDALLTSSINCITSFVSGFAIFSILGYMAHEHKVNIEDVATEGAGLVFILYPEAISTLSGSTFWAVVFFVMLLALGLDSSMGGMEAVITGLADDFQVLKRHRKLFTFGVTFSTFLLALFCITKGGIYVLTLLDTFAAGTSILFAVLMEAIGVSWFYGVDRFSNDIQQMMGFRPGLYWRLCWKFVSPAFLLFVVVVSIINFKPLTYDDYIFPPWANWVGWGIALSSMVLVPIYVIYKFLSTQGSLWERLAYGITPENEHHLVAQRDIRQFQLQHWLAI
The target in series [4] is T1, human norepinephrine transporter (hNET). Description: hNET uptake, Protocol A: inhibition of [3H] NE uptake into cloned human NE transporters (MDCK cells). In kind it is cell-based. Details: expressed in transfected cells; host or cells: MDCK-Net6 cells. The settings on record: for IC50: MDCK cells expressing hNET, [3H] NE 16 nM; for inhibition at 2 µM: MDCK, read-out: NE uptake (Protocol A) % inh. @ 2 uM. On the procedure: hNET Assay Procedure Protocol A: Inhibition of [^3H] NE Uptake into Cloned Human NE Transporters (MDCK Cells) (“hNET uptake”)
[^3H] […] Cells were seeded at 300,000/T75 flask, and split twice weekly.
All uptake experiments were performed in 96-well plates (Falcon Optilux, cat #353947) in a total volume of 250 μl/well. MDCK cells were plated at 50,000 cells/well. […] 25 μl of each test compound was subsequently added to plates in triplicate and incubated at 37° C. for 5 minutes. All test compounds were dissolved in 100% DMSO and diluted in 4% DMSO/H2O, and assayed using a 7-point dose response curve (1 nM-10 μM). Next, 25 μl of [^3H] NE (74.9 Ci/mmol, Perkin Elmer, Boston, Mass.) was added to all wells and incubated at 37° C. for an additional 5 minutes. Non-specific uptake was defined by 20 μM desipramine. The final concentrations of [^3H] NE was 16 nM, respectively. The reaction was terminated by aspiration and washed with ice cold 50 mM Tris (pH 7.4). The plates were left to air dry for roughly 30 min, and MDCK cells were lysed by the addition of 25 μl of 0.25 M NaOH. 100 μl of Microscint-20 were added to each well (Packard, Perkin Elmer, Boston, Mass.), and the plates were counted using a TopCount (Perkin Elmer, Downer's Grove, Ill.) liquid scintillation counter.
% Inhibition of uptake=((mean cpm control wells−each cpm drug well)/(mean cpm control wells−non-specific wells)×100.
IC50 values were calculated using a Prism® nonlinear regression program where % inhibition is plotted versus concentration of inhibitor.

[5] abbreviates: hNET Function IC50 (nM), protocol not stated.
Where [6] appears, read: NE uptake (Protocol B) IC50 (nM), MDCK-Net6 cells, 3H-NE 16 nM.

Sequence of Dopamine Transporter (hDAT) (Q01959 whole entry): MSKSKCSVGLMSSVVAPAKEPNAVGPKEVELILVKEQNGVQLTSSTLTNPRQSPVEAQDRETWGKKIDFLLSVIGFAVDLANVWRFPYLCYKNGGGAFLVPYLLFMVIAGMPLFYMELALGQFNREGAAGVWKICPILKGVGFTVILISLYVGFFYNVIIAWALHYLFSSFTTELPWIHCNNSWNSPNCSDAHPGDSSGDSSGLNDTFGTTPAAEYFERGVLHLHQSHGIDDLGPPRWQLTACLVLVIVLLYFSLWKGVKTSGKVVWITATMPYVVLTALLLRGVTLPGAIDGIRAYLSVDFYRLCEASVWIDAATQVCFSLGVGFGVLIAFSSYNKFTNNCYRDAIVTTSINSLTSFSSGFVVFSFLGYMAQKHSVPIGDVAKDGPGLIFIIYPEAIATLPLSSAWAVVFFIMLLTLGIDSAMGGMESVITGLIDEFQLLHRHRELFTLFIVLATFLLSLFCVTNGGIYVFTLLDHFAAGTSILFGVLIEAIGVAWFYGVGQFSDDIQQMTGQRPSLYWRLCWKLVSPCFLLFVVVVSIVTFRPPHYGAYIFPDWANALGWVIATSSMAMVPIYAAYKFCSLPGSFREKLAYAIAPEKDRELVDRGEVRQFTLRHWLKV

Take `CNCCCN1c2ccccc2N(c2c(F)cccc2F)S1(=O)=O`: the “RLM stability t1/2” value in series [1] came out at 2.0 min.
On to `CNCCCCN1c2ccccc2N(c2ccc(F)cc2F)S1(=O)=O`, for which the figures for the IC50 in series [2] and in series [3] (setting [5]) were 449 nM and 8.4 nM, respectively. In addition, in series [1], the half-life at 1 µM was determined as 11 min.
The molecule `NCCCN1c2ccccc2N(c2ccc(Cl)cc2)S1(=O)=O` [Example 2, 3-[3-(4-chlorophenyl)-2,2-dioxido-2,1,3-benzothiadiazol-1(3H)-yl]propan-1-amine] registered an IC50 in series [4] of 2530 nM.
With `O=S1(=O)N(CCCNC2CC2)c2ccccc2N1c1ccc(Cl)cc1` [Example 3, N-{3-[3-(4-chlorophenyl)-2,2-dioxido-2,1,3-benzothiadiazol-1(3H)-yl]propyl}cyclopropanamine], in series [4], the half-maximal inhibitory concentration (IC50) is 4220 nM.
Take `CCNCCCN1c2ccccc2N(c2ccc(Cl)cc2)S1(=O)=O` [Example 4, 3-[3-(4-chlorophenyl)-2,2-dioxido-2,1,3-benzothiadiazol-1(3H)-yl]-N-ethylpropan-1-amine]: the inhibition at 2 µM in series [4] was 37%.
Molecule `CNCCCN1c2ccccc2N(c2cccc(F)c2C)S1(=O)=O` [Example 10, 3-[3-(3-fluoro-2-methylphenyl)-2,2-dioxido-2,1,3-benzothiadiazol-1(3H)-yl]-N-methylpropan-1-amine] had an IC50 in series [4] of 40.2 nM.
`NCCCCN1c2ccccc2N(c2ccc(Cl)cc2)S1(=O)=O` [Example 19, 4-[3-(4-chlorophenyl)-2,2-dioxido-2,1,3-benzothiadiazol-1(3H)-yl]butan-1-amine] had an IC50 in series [4] of 1130 nM.
Consider `CNCCCCN1c2ccccc2N(c2ccc(Cl)cc2)S1(=O)=O` [Example 20, 4-[3-(4-chlorophenyl)-2,2-dioxido-2,1,3-benzothiadiazol-1(3H)-yl]-N-methylbutan-1-amine], for which, in series [4], the IC50 is 478 nM.
In series [4], `CN(C)CCCCN1c2ccccc2N(c2ccc(Cl)cc2)S1(=O)=O` [Example 21, 4-[3-(4-chlorophenyl)-2,2-dioxido-2,1,3-benzothiadiazol-1(3H)-yl]-N,N-dimethylbutan-1-amine] showed a half-maximal inhibitory concentration (IC50) of 5890 nM.
As for `CCCCNCCCCN1c2ccccc2N(c2ccc(Cl)cc2)S1(=O)=O` [Example 22, n-butyl-4-[3-(4-chlorophenyl)-2,2-dioxido-2,1,3-benzothiadiazol-1(3H)-yl]butan-1-amine], the inhibition at 2 µM in series [4] is 27%.
Take `CCN(C)CCCCN1c2ccccc2N(c2ccc(Cl)cc2)S1(=O)=O` [Example 23, 4-[3-(4-chlorophenyl)-2,2-dioxido-2,1,3-benzothiadiazol-1(3H)-yl]-ethyl-N-methylbutan-1-amine]: the inhibition at 2 µM in series [4] amounted to 28%.
With `NCCN1c2ccccc2N(c2ccc(Cl)cc2)S1(=O)=O` [Example 54, 2-[3-(4-chlorophenyl)-2,2-dioxido-2,1,3-benzothiadiazol-1(3H)-yl]ethanamine], the inhibition at 2 µM in series [4] was 3%.
As to `CNCCN1c2ccccc2N(c2ccc(Cl)cc2)S1(=O)=O` [Example 55, 2-[3-(4-chlorophenyl)-2,2-dioxido-2,1,3-benzothiadiazol-1(3H)-yl]-N-methylethanamine], the inhibition at 2 µM in series [4] was determined as 15%.
`CCNCCCCN1c2ccccc2N(c2ccc(F)cc2F)S1(=O)=O` [Example 121, 4-[3-(2,4-difluorophenyl)-2,2-dioxido-2,1,3-benzothiadiazol-1(3H)-yl]-N-ethylbutan-1-amine hydrochloride]: the IC50 in series [3] (setting [6]) amounted to 1500 nM.
On to `CCNCCCCN1c2ccccc2N(c2c(F)cccc2F)S1(=O)=O` [Example 122, 4-[3-(2,6-difluorophenyl)-2,2-dioxido-2,1,3-benzothiadiazol-1(3H)-yl]-N-ethylbutan-1-amine hydrochloride], for which the half-maximal inhibitory concentration (IC50) in series [3] (setting [6]) was determined as 48 nM.
As to `CC(C)NCCCCN1c2ccccc2N(c2c(F)cccc2F)S1(=O)=O` [Example 123, 4-[3-(2,6-difluorophenyl)-2,2-dioxido-2,1,3-benzothiadiazol-1(3H)-yl]-N-isopropylbutan-1-amine hydrochloride], the IC50 in series [3] (setting [6]) came to 1170 nM.
Regarding `O=S1(=O)N(CCCCNC2CCC2)c2ccccc2N1c1c(F)cccc1F` [Example 124, N-{4-[3-(2,6-difluorophenyl)-2,2-dioxido-2,1,3-benzothiadiazol-1(3H)-yl]butyl}cyclobutanamine hydrochloride], the IC50 in series [3] (setting [6]) was found to be 132 nM.
Regarding `O=S1(=O)N(CCCCNC2CCCCC2)c2ccccc2N1c1c(F)cccc1F` [Example 125, N-{4-[3-(2,6-difluorophenyl)-2,2-dioxido-2,1,3-benzothiadiazol-1(3-yl]butyl}cyclohexanamine hydrochloride], the IC50 in series [3] (setting [6]) was 440 nM.
With `CCNCCCN1c2ccccc2N(c2c(F)cccc2F)S1(=O)=O` [Example 126, 3-[3-(2,6-difluorophenyl)-2,2-dioxido-2,1,3-benzothiadiazol-1(3H)-yl]-N-ethylpropan-1-amine hydrochloride], the IC50 in series [3] (setting [6]) was 15 nM.
Turning to `CC(C)NCCCN1c2ccccc2N(c2c(F)cccc2F)S1(=O)=O` [Example 127, 3-[3-(2,6-difluorophenyl)-2,2-dioxido-2,1,3-benzothiadiazol-1(3H)-yl]-N-isopropylpropan-1-amine hydrochloride], the half-inhibitory concentration (IC50) in series [3] (setting [6]) is 148 nM.
Consider `O=S1(=O)N(CCCNC2CCC2)c2ccccc2N1c1c(F)cccc1F` [Example 128, N-{3-[3-(2,6-difluorophenyl)-2,2-dioxido-2,1,3-benzothiadiazol-1(3H)-yl]propyl}cyclobutanamine hydrochloride], for which the IC50 in series [3] (setting [6]) turned out to be 222 nM.
On the same count and under the same terms, under `O=S1(=O)N(CCCNC2CCCC2)c2ccccc2N1c1c(F)cccc1F` [Example 129, N-{3-[3-(2,6-difluorophenyl)-2,2-dioxido-2,1,3-benzothiadiazol-1(3H)-yl]propyl}cyclopentanamine hydrochloride] stands 195 nM; under `O=S1(=O)N(CCCNC2CCCCC2)c2ccccc2N1c1c(F)cccc1F` [Example 130, N-{3-[3-(2,6-difluorophenyl)-2,2-dioxido-2,1,3-benzothiadiazol-1(3H)-yl]propyl}cyclohexanamine hydrochloride], 224 nM.
In the case of `O=S1(=O)N(CCCNC2CCNCC2)c2ccccc2N1c1ccccc1F` [Example 131, N-{3-[3-(2-fluorophenyl)-2,2-dioxido-2,1,3-benzothiadiazol-1(3H)-yl]propyl}piperidin-4-amine dihydrochloride], the IC50 in series [3] (setting [6]) was 365 nM.
Consider `O=S1(=O)N(CCCNC2CCNCC2)c2ccccc2N1c1ccccc1` [Example 132, N-[3-(2,2-dioxido-3-phenyl-2,1,3-benzothiadiazol-1(3H)-yl)propyl]piperidin-4-amine dihydrochloride], for which, in series [3] (setting [6]), the IC50 came to 267 nM.
Take `O=S1(=O)N(CCNC2CCNCC2)c2ccccc2N1c1ccccc1F` [Example 133, N-{3-[3-(2-fluorophenyl)-2,2-dioxido-2,1,3-benzothiadiazol-1(3H)-yl]ethyl}piperidin-4-amine dihydrochloride]: in series [3] (setting [6]), the IC50 amounted to 45 nM.
Take `O=S1(=O)N(CCNC2CCNCC2)c2ccccc2N1c1ccccc1` [Example 134, N-[2-(2,2-dioxido-3-phenyl-2,1,3-benzothiadiazol-1(3H)-yl)ethyl]piperidin-4-amine dihydrochloride]: the IC50 in series [3] (setting [6]) came to 67 nM.
As to `O=S1(=O)N(CCCNCCO)c2ccccc2N1c1ccccc1F` [Example 135, 2-({3-[3-(2-fluorophenyl)-2,2-dioxido-2,1,3-benzothiadiazol-1(3H)-yl]propyl}amino)ethanol], in series [3] (setting [6]), the IC50 was 43 nM.
Turning to `CNCCCN1c2ccccc2N(c2ccccc2)S1(=O)=O` [drawing 157], the half-inhibitory concentration (IC50) in series [2] is 598 nM; in series [3] (setting [5]), 2.6 nM. Moreover, the half-life at 1 µM in series [1] worked out at 2 min.
With `CNCCCCN1c2ccccc2N(c2ccccc2)S1(=O)=O` [drawing 158], the half-maximal inhibitory concentration (IC50) in series [2] is 211 nM; in series [3] (setting [5]), 0.3 nM. Also, the half-life at 1 µM in series [1] came out at 2 min.
`CNCCCCN1c2ccccc2N(c2c(F)cccc2F)S1(=O)=O` [drawing 162]: the values for the IC50 in series [2] and in series [3] (setting [5]) were 9330 nM and 2.3 nM, respectively. Also, in series [1], the half-life at 1 µM was 1 min.
Consider `CNCCCN1c2ccccc2N(c2ccc(F)c(F)c2)S1(=O)=O` [drawing 163], for which the figures for the IC50 in series [2] and in series [3] (setting [5]) were 122 nM and 19.8 nM, respectively. Besides, the half-life at 1 µM in series [1] was determined as 18 min.
For the molecule “N-{3-[3-(2-fluorophenyl)-2,2-dioxido-2,1,3-benzothiadiazol-1(3H)-yl]butyl}cyclopropanamine [Example 99]”, in series [3] (read-out: NE uptake (Protocol B) IC50, MDCK-Net6 cells, 3H-NE 16 nM), the IC50 stood at 22 nM.
